Results on four compounds are retold here after ChEMBL document CHEMBL3124747, “Formosusin A, a novel specific inhibitor of mammalian DNA polymerase β from the fungus Paecilomyces formosus” (Bioorg Med Chem, 2014).

For orientation: IC50 means the point on the concentration scale where inhibition reaches its midpoint.

One experiment concerns the target T7 RNA polymerase (Enterobacteria phage T7, UniProt P00573). Kind of experiment: Inhibition of T7 RNA polymerase assessed as inhibition of incorporation of dTTP into poly(dA)/oligo(dT)18 after 60 mins. More on the design: species or system Escherichia phage T7.
Experiment [1] addresses Human immunodeficiency virus type 1 reverse transcriptase (Human immunodeficiency virus 1, UniProt Q72547). Put plainly: Inhibition of HIV-1 reverse transcriptase assessed as inhibition of incorporation of dTTP into poly(rA)/oligo(dT)18 after 60 mins.
The next experiment concerns the target Deoxyribonuclease-1 (Bos taurus, UniProt P00639). Kind of experiment: Inhibition of bovine deoxyribonuclease 1 assessed as inhibition of incorporation of dTTP into poly(dA)/oligo(dT)18 after 60 mins.
In the next experiment the target is T1, DNA polymerase lambda (Mus musculus, UniProt Q9QXE2).
T1 sequence (Q9QXE2 whole entry): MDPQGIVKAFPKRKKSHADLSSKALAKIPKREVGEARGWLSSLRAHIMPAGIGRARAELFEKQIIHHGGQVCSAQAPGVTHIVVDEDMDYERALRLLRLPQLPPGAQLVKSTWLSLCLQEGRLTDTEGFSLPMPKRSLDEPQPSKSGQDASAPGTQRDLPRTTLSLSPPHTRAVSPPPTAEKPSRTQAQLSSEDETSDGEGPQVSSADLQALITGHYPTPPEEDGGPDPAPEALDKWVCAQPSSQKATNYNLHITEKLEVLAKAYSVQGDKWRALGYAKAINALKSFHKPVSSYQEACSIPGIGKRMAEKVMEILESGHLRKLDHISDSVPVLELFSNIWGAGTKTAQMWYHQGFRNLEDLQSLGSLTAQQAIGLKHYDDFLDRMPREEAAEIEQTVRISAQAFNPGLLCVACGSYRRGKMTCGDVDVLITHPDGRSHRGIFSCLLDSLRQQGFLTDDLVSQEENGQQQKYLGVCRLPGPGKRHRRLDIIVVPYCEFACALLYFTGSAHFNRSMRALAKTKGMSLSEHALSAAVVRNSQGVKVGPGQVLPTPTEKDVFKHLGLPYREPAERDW
Put plainly: Inhibition of mouse DNA polymerase lambda assessed as inhibition of incorporation of dTTP into poly(dA)/oligo(dT)18 after 60 mins.

The nature of experiment [2]: Inhibition of calf DNA primase of polymerase alpha assessed as inhibition of incorporation of dTTP into poly(dA)/oligo(dT)18 after 60 mins. More on the design: species or system Bos taurus.
Experiment [3] concerns the target Inosine-5'-monophosphate dehydrogenase 2 (Mus musculus, UniProt P24547). Kind of experiment: Inhibition of mouse IMP dehydrogenase 2 assessed as inhibition of incorporation of dTTP into poly(dA)/oligo(dT)18 after 60 mins.
A further experiment concerns the target DNA polymerase beta (Rattus norvegicus, UniProt P06766). Put plainly: Inhibition of recombinant rat DNA polymerase beta expressed in Escherichia coli JMpbeta5 assessed as inhibition of incorporation of dTTP into poly(dA)/oligo(dT)18 after 60 mins.
The target in experiment [4] is T2, DNA polymerase delta catalytic subunit (Drosophila melanogaster, UniProt P54358).
T2 sequence (P54358 whole entry): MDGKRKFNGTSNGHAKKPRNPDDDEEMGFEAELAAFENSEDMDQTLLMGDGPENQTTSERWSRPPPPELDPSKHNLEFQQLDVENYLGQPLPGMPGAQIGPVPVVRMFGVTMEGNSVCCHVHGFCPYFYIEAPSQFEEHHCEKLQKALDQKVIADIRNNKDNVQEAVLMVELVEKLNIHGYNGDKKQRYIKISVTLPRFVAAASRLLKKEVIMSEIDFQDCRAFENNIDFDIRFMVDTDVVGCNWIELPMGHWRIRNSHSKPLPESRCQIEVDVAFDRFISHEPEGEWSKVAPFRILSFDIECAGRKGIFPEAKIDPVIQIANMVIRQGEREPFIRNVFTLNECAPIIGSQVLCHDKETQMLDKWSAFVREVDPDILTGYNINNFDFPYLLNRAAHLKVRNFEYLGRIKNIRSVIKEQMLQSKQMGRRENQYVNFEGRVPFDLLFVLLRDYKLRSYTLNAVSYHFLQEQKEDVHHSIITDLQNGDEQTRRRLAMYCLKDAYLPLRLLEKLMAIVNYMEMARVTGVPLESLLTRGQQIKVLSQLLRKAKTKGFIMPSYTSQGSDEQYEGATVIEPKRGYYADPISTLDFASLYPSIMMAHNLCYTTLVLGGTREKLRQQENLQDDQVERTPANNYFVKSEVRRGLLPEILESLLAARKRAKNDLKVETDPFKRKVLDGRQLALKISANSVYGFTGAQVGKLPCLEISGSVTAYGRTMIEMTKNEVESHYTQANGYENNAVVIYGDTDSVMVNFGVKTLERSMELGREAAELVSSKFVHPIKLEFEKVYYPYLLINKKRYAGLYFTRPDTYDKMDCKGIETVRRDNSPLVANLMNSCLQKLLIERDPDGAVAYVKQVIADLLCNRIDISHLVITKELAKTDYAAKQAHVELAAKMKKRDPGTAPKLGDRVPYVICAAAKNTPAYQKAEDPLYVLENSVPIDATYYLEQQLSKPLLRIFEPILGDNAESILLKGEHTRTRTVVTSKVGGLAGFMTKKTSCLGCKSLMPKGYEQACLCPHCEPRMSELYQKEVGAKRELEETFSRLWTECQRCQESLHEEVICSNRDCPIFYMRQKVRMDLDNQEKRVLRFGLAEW
Kind of experiment: Inhibition of fruit fly DNA polymerase delta assessed as inhibition of incorporation of dTTP into poly(dA)/oligo(dT)18 after 60 mins.

The nature of experiment [5]: Inhibition of DNA polymerase epsilon isolated from human MOLT4 cells assessed as inhibition of incorporation of dTTP into poly(dA)/oligo(dT)18 after 60 mins. The class given is cell-free. The conditions noted are these: molt-4.
Experiment [6] in a line: Inhibition of cherry salmon DNA polymerase delta assessed as inhibition of incorporation of dTTP into poly(dA)/oligo(dT)18 after 60 mins. Further details: species or system Oncorhynchus masou.
Experiment [7] is described as follows: Inhibition of C-terminal His-6-tagged L. cv.Nipponbare rice recombinant DNA polymerase lambda expressed in Escherichia coli assessed as inhibition of incorporation of dTTP into poly(dA)/oligo(dT)18 after 60 mins. More on the design: species or system Oryza sativa.
Experiment [8] is described as follows: Inhibition of cauliflower DNA polymerase alpha assessed as inhibition of incorporation of dTTP into poly(dA)/oligo(dT)18 after 60 mins. More on the design: species or system Brassica oleracea var. botrytis.
The target in experiment [9] is DNA-directed DNA/RNA polymerase mu (Homo sapiens, UniProt Q9NP87). Put plainly: Inhibition of human His-tagged recombinant DNA polymerase mu expressed in Escherichia coli BL21 assessed as inhibition of incorporation of dTTP into poly(dA)/oligo(dT)18 after 60 mins.
Another experiment addresses Polynucleotide kinase (Enterobacteria phage T4, UniProt P06855). Put plainly: Inhibition of T4 bacteriophage polynucleotide kinase assessed as inhibition of incorporation of dTTP into poly(dA)/oligo(dT)18 after 60 mins. Further details: species or system Tequatrovirus T4.

Some results are limits rather than exact numbers.

Deoxyribonuclease-1, sequence (P00639 whole entry): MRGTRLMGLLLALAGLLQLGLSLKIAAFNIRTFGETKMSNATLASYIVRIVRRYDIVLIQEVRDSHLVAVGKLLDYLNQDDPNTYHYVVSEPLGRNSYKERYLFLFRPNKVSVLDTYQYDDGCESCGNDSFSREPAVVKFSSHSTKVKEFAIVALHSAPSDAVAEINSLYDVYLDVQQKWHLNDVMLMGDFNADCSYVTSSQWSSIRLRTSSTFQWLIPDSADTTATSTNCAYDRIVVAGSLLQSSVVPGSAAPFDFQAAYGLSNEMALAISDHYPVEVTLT
DNA-directed DNA/RNA polymerase mu, sequence (Q9NP87 whole entry): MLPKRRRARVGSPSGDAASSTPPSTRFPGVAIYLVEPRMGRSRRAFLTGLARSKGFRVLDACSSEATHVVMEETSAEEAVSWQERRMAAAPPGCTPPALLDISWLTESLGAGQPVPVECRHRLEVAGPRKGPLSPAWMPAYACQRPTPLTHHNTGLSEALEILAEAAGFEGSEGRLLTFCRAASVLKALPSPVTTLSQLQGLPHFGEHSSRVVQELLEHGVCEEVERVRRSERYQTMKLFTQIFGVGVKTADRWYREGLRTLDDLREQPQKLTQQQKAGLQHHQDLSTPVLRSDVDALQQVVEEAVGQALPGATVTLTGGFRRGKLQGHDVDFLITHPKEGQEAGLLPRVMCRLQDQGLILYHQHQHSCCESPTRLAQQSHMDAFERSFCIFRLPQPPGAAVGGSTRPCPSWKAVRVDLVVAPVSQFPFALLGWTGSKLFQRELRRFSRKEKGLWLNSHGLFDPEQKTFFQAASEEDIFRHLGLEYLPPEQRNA
Polynucleotide kinase, sequence (P06855 whole entry): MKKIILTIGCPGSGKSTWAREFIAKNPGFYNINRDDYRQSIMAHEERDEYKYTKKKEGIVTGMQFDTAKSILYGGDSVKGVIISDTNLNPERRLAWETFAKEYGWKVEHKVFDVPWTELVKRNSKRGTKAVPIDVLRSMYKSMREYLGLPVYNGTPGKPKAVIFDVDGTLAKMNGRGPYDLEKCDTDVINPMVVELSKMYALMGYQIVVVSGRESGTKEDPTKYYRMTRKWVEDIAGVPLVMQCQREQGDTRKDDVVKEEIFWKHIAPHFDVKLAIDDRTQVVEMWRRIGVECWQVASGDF
T7 RNA polymerase, sequence (P00573 whole entry): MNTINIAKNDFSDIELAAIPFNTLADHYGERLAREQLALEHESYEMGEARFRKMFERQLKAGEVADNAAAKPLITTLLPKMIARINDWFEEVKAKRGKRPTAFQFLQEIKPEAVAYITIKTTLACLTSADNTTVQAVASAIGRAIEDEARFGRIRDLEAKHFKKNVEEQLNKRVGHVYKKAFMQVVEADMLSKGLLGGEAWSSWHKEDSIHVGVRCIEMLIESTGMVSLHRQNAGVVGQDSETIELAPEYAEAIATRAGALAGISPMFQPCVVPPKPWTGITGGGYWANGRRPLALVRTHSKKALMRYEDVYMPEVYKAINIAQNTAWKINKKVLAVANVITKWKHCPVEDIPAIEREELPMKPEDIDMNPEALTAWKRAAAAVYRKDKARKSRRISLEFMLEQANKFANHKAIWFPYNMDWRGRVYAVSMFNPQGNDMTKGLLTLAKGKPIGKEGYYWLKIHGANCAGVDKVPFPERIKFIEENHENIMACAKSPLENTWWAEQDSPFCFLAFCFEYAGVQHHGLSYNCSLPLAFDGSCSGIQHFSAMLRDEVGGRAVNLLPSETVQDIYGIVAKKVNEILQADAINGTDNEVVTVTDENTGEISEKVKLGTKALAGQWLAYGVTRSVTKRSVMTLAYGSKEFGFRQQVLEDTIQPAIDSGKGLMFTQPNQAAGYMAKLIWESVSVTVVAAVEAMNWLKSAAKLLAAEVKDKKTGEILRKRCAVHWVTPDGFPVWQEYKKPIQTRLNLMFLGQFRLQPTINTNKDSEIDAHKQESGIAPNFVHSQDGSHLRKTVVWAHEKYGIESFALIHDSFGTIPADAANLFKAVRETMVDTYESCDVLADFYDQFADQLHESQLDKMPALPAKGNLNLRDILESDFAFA
Inosine-5'-monophosphate dehydrogenase 2, sequence (P24547 whole entry): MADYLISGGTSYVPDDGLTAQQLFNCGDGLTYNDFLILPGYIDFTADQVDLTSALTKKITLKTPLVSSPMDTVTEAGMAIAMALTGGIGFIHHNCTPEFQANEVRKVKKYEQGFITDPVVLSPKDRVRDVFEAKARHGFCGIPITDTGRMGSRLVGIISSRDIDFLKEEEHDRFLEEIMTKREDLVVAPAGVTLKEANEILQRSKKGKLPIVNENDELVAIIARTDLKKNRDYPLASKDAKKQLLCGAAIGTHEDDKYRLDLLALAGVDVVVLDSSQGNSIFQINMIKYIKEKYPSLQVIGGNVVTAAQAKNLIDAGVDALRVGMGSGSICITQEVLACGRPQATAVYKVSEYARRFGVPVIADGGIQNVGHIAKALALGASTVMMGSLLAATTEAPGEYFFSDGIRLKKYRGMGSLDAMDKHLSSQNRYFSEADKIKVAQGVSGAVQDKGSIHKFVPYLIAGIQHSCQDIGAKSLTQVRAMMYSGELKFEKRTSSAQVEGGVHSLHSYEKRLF

Take `CCCC[C@@H](O)/C=C(C)/C=C/C=C\C(=O)N1CCCC1=O`: the IC50 (on T7 RNA polymerase; in experiment [1]; at Deoxyribonuclease-1; on DNA polymerase lambda; in experiment [2]; in experiment [3]) was more than 200 µM each time. Besides, the IC50 at DNA polymerase beta is 35.6 µM; in experiment [4] it was more than 200 µM; in experiment [5], more than 200 µM; in experiment [6], more than 200 µM; in [7], more than 200 µM; in experiment [8] it was more than 200 µM. Moreover, the concentration for half-maximal inhibition (IC50) (in experiment [9]; on Polynucleotide kinase) was more than 200 µM throughout.

In the case of `CC(/C=C/CCC(=O)N1CCCC1=O)=C\C1CCCCO1` (stereo unspecified), the IC50 (on T7 RNA polymerase; in experiment [1]; at Deoxyribonuclease-1; on DNA polymerase lambda; in experiment [2]; in experiment [3]) was more than 200 µM in each case. In addition, the IC50 (at DNA polymerase beta; in [4]; in experiment [5]; in [6]; in experiment [7]; in [8]) was more than 200 µM throughout. The IC50 (in experiment [9]; at Polynucleotide kinase) was more than 200 µM throughout.

Consider `CCCC[C@@H](O)/C=C(C)/C=C/C=C/C(=O)N1CCCC1=O` [PECILOCIN], for which the 50% inhibitory concentration (IC50) (at T7 RNA polymerase; in experiment [1]; at Deoxyribonuclease-1; at DNA polymerase lambda; in experiment [2]; in experiment [3]) was more than 200 µM throughout. The IC50 (on DNA polymerase beta; in experiment [4]; in experiment [5]; in experiment [6]; in experiment [7]; in experiment [8]) was more than 200 µM throughout. The IC50 (in experiment [9]; on Polynucleotide kinase) was more than 200 µM in each case.

For the compound `CCCCC(=O)/C=C(C)/C=C/CCC(=O)N1CCCC1=O`, the IC50 (on T7 RNA polymerase; in [1]; on Deoxyribonuclease-1; on DNA polymerase lambda; in experiment [2]; in [3]) was more than 200 µM each time. The IC50 (at DNA polymerase beta; in experiment [4]; in experiment [5]; in experiment [6]; in experiment [7]; in experiment [8]) was more than 200 µM in each case. Also, the IC50 (in [9]; on Polynucleotide kinase) was more than 200 µM each time.
